Laboratory results reported in patent US8476270B2, “Dihydropyrido[4,3-b]pyrazine-3-ones as modulators of toll-like receptors” (Gilead Sciences, Inc., priority 2009, dated 2013).

test system: human Peripheral Blood Mononuclear Cell (PMBC); experiment: PBMC assay: cytokine (IFN-alpha) stimulation at 24 hours; assay type: cell-based; conditions: 24 hours incubation, IFN-alpha in supernatant (Luminex)
Method: PBMC Assay Protocol Assays were conducted to determine cytokine stimulation at 24 hours from human Peripheral Blood Mononuclear Cell (PMBC) using the compounds of the present invention. The assays were run in duplicate, with 8-point, half-log dilution curves. The compounds of the present invention were diluted from 10 mM DMSO solution. Cell supernatants are assayed directly for IFNa and 1:10 dilution for TNFa. The assays were performed in a similar fashion as described in Bioorg. Med. Chem. Lett. 16, 4559, (2006). Specifically, cryo-preserved PBMCs were thawed and seeded 96 well plates with 750,000 cells/well in 190 μL/well cell media. The PBMCs were then incubated for 1 hour at 37° C. at 5% CO2. Then, the compounds of the present invention were added in 10 μL cell media at 8 point, half-log dilution titration. The plates were incubated at 37° C. and 5% CO2 for 24 hours and then spinned at 1200 rpm for 10 min, which was followed by collecting supernatant and storing the same at −80° C. Cytokine secretion was assayed with Luminex and Upstate multi-plex kits, using a Luminex analysis instrument. IFN ECmax value for a compound was the concentration at which the compound stimulated maximum IFN-a production as determined using the assay method above.

| SMILES | MEC = minimum concentration for induction of IFN-alpha = 3-fold over background |
| --- | --- |
| CCCCOc1cc2c(c(N)n1)NC(=O)CN2Cc1cccc(CN2CCCC2)c1 [A] | d (d: 100 nM-1000 nM) |
| CCCCOc1cc2c(c(N)n1)NC(=O)CN2Cc1ccc(CN2CCCC2)cc1 [B] | c (c: 10 nM-99 nM) |
| COCCOc1cc2c(c(N)n1)NC(=O)CN2Cc1ccc(CN2CCCC2)cc1 [C] | a (a: = 1 nM) |
| COCCOc1nc(N)c2c(c1Cl)N(Cc1ccc(CN3CCCC3)cc1)CC(=O)N2 [D] | e (e: = 1000 nM) |
| CCCCOc1cc2c([nH]c(=O)c(=O)n2Cc2ccc(CN3CCCC3)cc2)c(N)n1 [E] | b (b: 1 nM-9 nM) |
| CCCCOc1cc2c([nH]c(=O)c(=O)n2Cc2ccc(-c3cccc(CN4CCCC4)c3)cc2)c(N)n1 [F] | c (c: 10 nM-99 nM) |
| CCCCOc1cc2c([nH]c(=O)c(=O)n2Cc2ccc(-c3ccc(CN4CCCC4)cc3)cc2)c(N)n1 [G] | c (c: 10 nM-99 nM) |
